Counter-ions that a name gives are not always drawn.
biological target: T1, human glucokinase (Homo sapiens, UniProt P35557); test: Measurement of glucokinase activity (G6PDH-coupled, absorbance at 340 nm); type: biochemical; details: read-out: GK activation effect (%)
T1 construct: made in house; host or cells: E. coli
T1 sequence (P35557 16-465): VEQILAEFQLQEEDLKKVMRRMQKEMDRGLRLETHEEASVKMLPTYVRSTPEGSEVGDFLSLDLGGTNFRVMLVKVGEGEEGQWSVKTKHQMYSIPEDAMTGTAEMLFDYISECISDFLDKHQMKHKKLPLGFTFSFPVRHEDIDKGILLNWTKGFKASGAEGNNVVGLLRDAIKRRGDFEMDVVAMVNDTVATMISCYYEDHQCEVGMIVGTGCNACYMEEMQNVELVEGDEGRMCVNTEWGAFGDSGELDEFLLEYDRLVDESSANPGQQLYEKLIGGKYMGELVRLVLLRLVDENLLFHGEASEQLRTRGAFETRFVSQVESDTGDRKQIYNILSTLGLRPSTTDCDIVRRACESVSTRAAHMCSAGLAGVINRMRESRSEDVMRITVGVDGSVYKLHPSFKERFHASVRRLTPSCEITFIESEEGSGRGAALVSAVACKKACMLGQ
Method: To the EcoRI, HindIII site of a pQE-80 expression vector were introduced a DNA fragment in which the same restriction enzyme site had been added to the N-terminal deficiency (1-15 amino acids deficiency)-encoding region of a human GK. E. coli was transformed by using this plasmid to express a human glucokinase, and purification was conducted as follows.
A fungus body that had been collected from 200 ml of an E. coli culture solution was collected and suspended in 20 ml of Extraction buffer A (20 mM HEPES, pH 8.0, 1 mM MgCl2, 150 mM NaCl, 2 mM mercaptoethanol, 0.25 mg/ml lysozyme, […] sodium azide), and the suspension was stood still at room temperature for 5 minutes. 20 ml of Extraction buffer B (1.5 M NaCl, 100 mM CaCl2, 100 mM MgCl2, 0.02 mg/ml DNA catabolic enzyme 1, a protease inhibitor tablet (Complete (registered trademark) 1697498): one tablet per 20 ml of the buffer) was added therero, followed by standing still at room temperature for 5 minutes. The extract liquid was then centrifuged by 15,000 g for 30 minutes at 4° C., and the supernatant was used as an E. coli extract liquid. The E. coli extract liquid was filtered by a 0.45 μm filter and applied to an Ni-NTA agarose 2 mL bed that had been equilibrated with a buffer (20 mM HEPES pH 8.0, 0.5 M NaCl) comprising 20 mM of imidazole. The bed was washed with about 10 ml of a washing buffer and eluted stepwise with buffers (20 mM HEPES pH 8.0, 0.5 M NaCl) each comprising imidazole by from 40 to 500 mM. Each of the column fractions was analyzed by using SDS gel electrophoresis, and the fraction comprising hGK (MW: 52 KDa) was concentrated. The concentrated sample was then passed through a Sephacryl S-200HR (11/60) gel filtration column and eluted with buffer B (20 mM HEPES, pH 8.0, 1 mM MgCl2, 150 mM NaCl, 1 mM DTT). The eluted fraction was analyzed by SDS gel electrophoresis, and the fraction comprising hGK was concentrated. Finally, 50% glycerol was added to the fraction, and the fraction was stored at −20° C.
178 μl of GK assay mix (25 mM Hepes buffer (pH 7.1), 25 mM KCl, 2 mM MgCl2, 1 mM NADP, 1 mM dithiotheitol, 2 unit/mL G6PDH, 5 mM D-glucose, a suitable amount of GK) was added to a UV permeable 96-well plate. 2 μl of the test compound dissolved in DMSO was added thereto, followed by standing still at room temperature for 10 minutes, and 20 μl al of 20 mM ATP was then added thereto to start a reaction. An absorbance at 340 nm was measured by Spectra Max Plus for 5 minutes at intervals of 30 seconds at room temperature, and the compound was evaluated in the reaction at the first 3 minutes.

Row | Structure (SMILES) | activation at 10 µM
1 | Cc1sc([C@@H]2C[C@@H](F)CN2C(=O)CNS(C)(=O)=O)cc1C(=O)Nc1ncc(F)s1 [Example 12, (−)-5-[(2S,4R)-4-Fluoro-1-(2-methanesulfonylaminoacetyl)pyrrolidin-2-yl]-2-methylthiophene-3-carboxylic acid (5-fluorothiazol-2-yl)amide] | 630%
2 | CC(=O)N[C@@H](C)C(=O)N1C[C@H](F)C[C@H]1c1cc(C(=O)Nc2ncc(F)s2)c(C)s1 [Example 23, (−)-5-[(2S,4R)-1-((S)-2-Acetylaminopropionyl)-4-fluoropyrrolidin-2-yl]-2-methylthiophene-3-carboxylic acid (5-fluorothiazol-2-yl)amide] | 641%

same assay, conditions: test compound at final concentration of 10 μM, 5 mM D-glucose, in comparison with a well that did not comprise the compound; read-out: GK activation effect (%)

Row | Structure (SMILES) | activation at 10 µM
3 | Cc1sc(C2CCCN2C(=O)[C@H](C)NC(N)=O)cc1C(=O)Nc1ncc(F)s1 (single isomer, unassigned; (-)) [Example 22] | 613%
4 | Cc1sc(C2CCCN2C(=O)CNC(N)=O)cc1C(=O)Nc1ncc(F)s1 (single isomer, unassigned; (-)) [Example 10, (−)-2-Methyl-5-[1-(2-ureidoacetyl)pyrrolidin-2-yl]thiophene-3-carboxylic acid (5-fluorothiazol-2-yl)amide] | 600%

Second part, the compound after the results:

Row | activation at 10 µM | Structure (SMILES)
5 | 695% | Cc1sc(C2CCCN2C(=O)CN(C)CCCCC(=O)O)cc1C(=O)Nc1ncc(F)s1 (stereo not drawn) [Example 78, 5-[(2-{2-[4-(5-Fluorothiazol-2-ylcarbamoyl)-5-methylthiophen-2-yl}pyrrolidin-1-yl]-2-oxoethyl)methylamino]pentanoic acid hydrochloride]
6 | 801% | Cc1sc([C@@H]2C[C@@H](F)CN2C(=O)CN(C)CC(=O)O)cc1C(=O)Nc1ncc(F)s1 [Example 38, [(2-{(2S,4R)-4-Fluoro-2-[4-(5-fluorothiazol-2-ylcarbamoyl)-5-methylthiophen-2-yl]pyrrolidin-1-yl}-2-oxoethyl)methylamino]acetic acid hydrochloride]
7 | 787% | CCCCCN(CC(=O)O)CC(=O)N1CCCC1c1cc(C(=O)Nc2ncc(F)s2)c(C)s1 (stereo not drawn) [Example 81, [(2-[2-[4-(5-Fluorothiazol-2-ylcarbamoyl)-5-methylthiophen-2-yl]pyrrolidin-1-yl]-2-oxoethyl)pentylamino]acetic acid]
8 | 752% | CCCCCN(CC(=O)O)CC(=O)N1C[C@H](F)C[C@H]1c1cc(C(=O)Nc2ncc(F)s2)c(C)s1 [Example 80, [(2-[(2S,4R)-4-Fluoro-2-[4-(5-fluorothiazol-2-ylcarbamoyl)-5-methylthiophen-2-yl]pyrrolidin-1-yl]-2-oxoethyl)pentylamino]acetic acid]
9 | 717% | Cc1sc(C2CCCN2C(=O)CN(C)CCCCC(=O)O)cc1C(=O)Nc1ncc(Cl)s1 (stereo not drawn) [Example 79, 5-[(2-{2-[4-(5-Chlorothiazol-2-ylcarbamoyl)-5-methylthiophen-2-yl]pyrrolidin-1-yl}-2-oxoethyl)methylamino]pentanoic acid hydrochloride]

— patent publication US20120101137A1, “NOVEL THIOPHENECARBOXAMIDE DERIVATIVE AND PHARMACEUTICAL USE THEREOF” (SANWA KAGAKU KENKYUSHO CO., LTD., priority 2009, published 2012)
